# Measured values: patent publication US20240158418A1 (C4 Therapeutics, Inc., priority 2021, published 2024)
# Read-outs that look alike come from different tables or passages of the source.
# How the values were obtained:
# EGFR L858R = EGFR L858R (Homo sapiens, UniProt P00533, L858R); assay: EGFR degradation, Total EGFR (L858R-specific) HTRF, NCI-H3255; format: cell-based; design: NCI-H3255 (harboring EGFR heterozygous L858R mutation); host or cells: NCI-H3255; conditions: H3255 (L858R), 6 hours; read-out: tEGFR DC50
# Summary of the method: (§1)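 Cells in RPMI 1640 + 10% FBS treated 6 h at 37°C with compound, 11-point half-log titration from 10 μM top, in duplicate. pY1068 and total EGFR read by HTRF (pan-EGFR antibody for wild-type A431; L858R-specific for mutants); IC50 for phospho inhibition, DC50 for 50% degradation.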
# EGFR L858R-T790M-C797S = molecular target: T1, EGFR L858R-T790M-C797S (Homo sapiens, UniProt P00533, C797S/L858R/T790M); assay: EGFR degradation, Total EGFR (L858R-specific) HTRF, NCI-H1975+CS; format: cell-based; conditions: H1975 + CS (L858R-T790M-C797S), 6 hours; read-out: tEGFR DC50
# T1 construct: generated using CRISPR technology to introduce the additional C797S mutation by Horizon Discovery; host or cells: NCI-H1975+CS (CRISPR knock-in of C797S)
# Summary of the method: as §1
# pY1068 EGFR L858R = molecular target: T2, pY1068 EGFR L858R (Homo sapiens, UniProt P00533, L858R); assay: Phospho-EGFR (pY1068) inhibition HTRF, NCI-H3255; format: cell-based; conditions: 6 hours, read-out: pEGFR IC50
# T2 construct: NCI-H3255 (harboring EGFR heterozygous L858R mutation); host or cells: NCI-H3255
# Excerpt: (§2) NCI-H1975 (harboring EGFR heterozygous L858R-T790M mutations) and NCI-H3255 (harboring EGFR heterozygous L858R mutation) were purchased from ATCC and NCI, respectively. NCI-H1975+CS (harboring EGFR heterozygous L858R-T790M-C797S mutations) was generated using CRISPR technology to introduce the additional C797S mutation by Horizon Discovery. A431 (harboring EGFR wildtype) was purchased from ATCC. RPMI 1640 no-phenol red medium and fetal bovine serum (FBS) were purchased from Gibco (Grand Island, NY, USA). Cell culture flasks and 384-well microplates were acquired from VWR (Radnor, PA, USA). Phosphorylated (pY1068) EGFR and Total EGFR (using L858R-specific detection antibody and pan-EGFR antibody for EGFR mutant cell lines and EGFR wild-type cell lines, respectively) HTRF assay kits were purchased from Cisbio (Bedford, MA, USA).
# (§3) Degradation of EGFR protein containing L858R mutation or wild-type was determined based on quantification of FRET signal using a Total EGFR (L858R-specific or pan-EGFR detecting) HTRF assay kit. Phospho-EGFR (pEGFR) inhibition was determined based on quantification of FRET signal using a pY1068 EGFR HTRF assay kit. In separate assay plates, test compounds were added to the 384-well plate from a top concentration of 10 μM with 11 points, half log titration in duplicates. For each assay, 12.5 uL of cells suspended in assay media (RPMI 1640 no-phenol red medium+10% FBS) at cell densities indicated for each cell line in Table 8 below were dispensed using a multi-channel pipette to 384-well low volume white HTRF microplates containing a duplicate concentration range of test compounds and DMSO controls. The plates were kept at 37° C. with 5% CO2 for 6 hours and then incubated with either phospho EGFR or Total EGFR HTRF detection antibodies according to the cell line and EGFR mutant being assayed. Cells treated in the absence of the test compound were the negative control. Positive control was set by wells containing all reagents but no cells. FRET signal was acquired on EnVision™ Multilabel Reader (PerkinElmer, Santa Clara, CA, USA). Compound concentration that achieves 50% degradation and inhibition was reported as DC50 and IC50, respectively.
# [1] = molecular target: T3, pY1068 EGFR L858R-T790M-C797S (Homo sapiens, UniProt P00533, C797S/L858R/T790M); assay: Phospho-EGFR (pY1068) inhibition HTRF, NCI-H1975+CS; format: cell-based; conditions: 6 hours, read-out: pEGFR IC50
# T3 construct: generated using CRISPR technology to introduce the additional C797S mutation by Horizon Discovery; host or cells: NCI-H1975+CS (CRISPR knock-in of C797S)
# Excerpt: as §2, §3
# pY1068 EGFR L858R-T790M = molecular target: T4, pY1068 EGFR L858R-T790M (Homo sapiens, UniProt P00533, L858R/T790M); assay: Phospho-EGFR (pY1068) inhibition HTRF, NCI-H1975; format: cell-based; conditions: 6 hours, read-out: pEGFR IC50
# T4 construct: NCI-H1975 (harboring EGFR heterozygous L858R-T790M mutations); host or cells: NCI-H1975
# Excerpt: as §2, §3
# EGFR L858R-T790M = molecular target: T5, EGFR L858R-T790M (Homo sapiens, UniProt P00533, L858R/T790M); assay: EGFR degradation, Total EGFR (L858R-specific) HTRF, NCI-H1975; format: cell-based; conditions: 6 hours
# T5 construct: NCI-H1975 (harboring EGFR heterozygous L858R-T790M mutations); host or cells: NCI-H1975
# Summary of the method: as §1
# [2] = system: BaF3 cells expressing EGFR L858R-T790M-L792H; assay: Ba/F3 EGFR cell viability (CellTiter-Glo), L858R-T790M-L792H; format: cell-based; conditions: Mus musculus, read-out: CTGlo (GI50)
# Excerpt: (§4) RPMI 1640 media, cell culture flasks, and 384-well microplates were purchased from VWR (Radnor, PA, USA). Fetal bovine serum (FBS) was purchased from Life Technologies (Carlsbad, CA, USA) and CellTiter-Glo® was purchased from Promega (Madison, WI, USA). The Ba/F3 parental cell line was purchased from CrownBio (Santa Clara, CA). BaF3 cell lines ectopically expressing the EGFR mutations L858R, L858R-T790M, L858R-C797S, and L858R-T790M-C797S were purchased from CrownBio and EGFR mutations L858R-L718Q, L858R-T790M-L718Q, L858R-L792H, and L858R-T790M-L792H, were purchased from Signosis (Santa Clara, CA).
# (§5) Cell viability was assessed based on the quantification of ATP using the CellTiter-Glo® assay (Promega, Madison, WI, USA). To determine the effect of compounds on cell viability, all Ba/F3 cell lines were plated at a cell density of 2000 cells/well in 384-well plates using RPMI 1640+10% FBS and treated with compounds of interest using a 10-point half-log dilution series in duplicate for 72 hours, with the highest dose set at […]. CellTiter-Glo® reagent was then added and luminescence signals were measured using an EnVision™ Multimode plate reader (Perkin Elmer, Santa Clara, CA). For data normalization, cells untreated with the test compounds at Time=72 hours were set to 100% (equivalent to maximal cell growth after 72 hours); cells untreated with the test compounds at Time=0 hours were set to 0% (equivalent to cytostasis); and media-only wells were set to −100% (equivalent to complete cytotoxicity). % Viability was determined by normalizing the signal with positive and DMSO treated negative controls on the same microtiter plate. The half-maximal inhibition of cell growth (GI50) is computed from where the fitted curve crosses 50% while the half-maximal lethal dose (LD50) is computed from where the fitted curve crosses −50%.
# [3] = system: BaF3 cells expressing EGFR L858R-L792H; assay: Ba/F3 EGFR cell viability (CellTiter-Glo), L858R-L792H; format: cell-based; conditions: Mus musculus, read-out: CTGlo (GI50)
# Excerpt: as §4, §5
# [4] = system: BaF3 cells expressing EGFR L858R-T790M-C797S; assay: Ba/F3 EGFR cell viability (CellTiter-Glo), L858R-T790M-C797S; format: cell-based; conditions: Mus musculus, read-out: CTGlo (GI50)
# Excerpt: as §4, §5
# [5] = system: BaF3 cells expressing EGFR L858R-L718Q; assay: Ba/F3 EGFR cell viability (CellTiter-Glo), L858R-L718Q; format: cell-based; conditions: Mus musculus, read-out: CTGlo (GI50)
# Excerpt: as §4, §5
# [6] = system: BaF3 cells expressing EGFR L858R-T790M-L718Q; assay: Ba/F3 EGFR cell viability (CellTiter-Glo), L858R-T790M-L718Q; format: cell-based; conditions: Mus musculus, read-out: CTGlo (GI50)
# Excerpt: as §4, §5
# EGFR WT = molecular target: T6, EGFR WT (Homo sapiens, UniProt P00533); assay: EGFR degradation, Total EGFR (pan-EGFR) HTRF, A431; format: cell-based; conditions: A431 (wild-type), 6 hours; read-out: tEGFR DC50
# T6 construct: A431 (harboring EGFR wildtype) was purchased from ATCC; host or cells: A431
# Excerpt: as §2, §3
# [7] = system: engineered triple mutant EGFR (L858R-T790M-C797S) BaF3 tumors; assay: BaF3 triple mutant EGFR allograft efficacy; format: in vivo, female BALB/c nude mice; conditions: Compound 1 or 2 at 20, 50, 100 mg/kg/day PO BID; osimertinib 25 mg/kg/day PO QD; 14 days
# Method: Each Compound was administered BID (twice a day) orally (PO).
# Tumor volume was measured twice weekly in two dimensions using calipers, and volume (mm^3) was calculated using the formula: V=0.5 a×b^2 where a and b are the long and short diameters of the tumor in mm, respectively. […] Treatment began on Day 0 with established subcutaneous BaF3 tumors with a mean tumor volume (MTV) of 108 mm^3.
# Body weight and MTV were measured on a 2× weekly schedule. Statistical analysis was performed using a one-way ANOVA followed by Dunnett's multiple comparison test. Data are expressed as MTV±SEM.
# [8] = H1975 (L858R-T790M), read-out: tEGFR DC50
# [9] = Table 9A, NCI-H1975 cells, Total EGFR HTRF, read-out: H1975 EGFR DC50
# T5 sequence (P00533 25-1210 T790M/L858R): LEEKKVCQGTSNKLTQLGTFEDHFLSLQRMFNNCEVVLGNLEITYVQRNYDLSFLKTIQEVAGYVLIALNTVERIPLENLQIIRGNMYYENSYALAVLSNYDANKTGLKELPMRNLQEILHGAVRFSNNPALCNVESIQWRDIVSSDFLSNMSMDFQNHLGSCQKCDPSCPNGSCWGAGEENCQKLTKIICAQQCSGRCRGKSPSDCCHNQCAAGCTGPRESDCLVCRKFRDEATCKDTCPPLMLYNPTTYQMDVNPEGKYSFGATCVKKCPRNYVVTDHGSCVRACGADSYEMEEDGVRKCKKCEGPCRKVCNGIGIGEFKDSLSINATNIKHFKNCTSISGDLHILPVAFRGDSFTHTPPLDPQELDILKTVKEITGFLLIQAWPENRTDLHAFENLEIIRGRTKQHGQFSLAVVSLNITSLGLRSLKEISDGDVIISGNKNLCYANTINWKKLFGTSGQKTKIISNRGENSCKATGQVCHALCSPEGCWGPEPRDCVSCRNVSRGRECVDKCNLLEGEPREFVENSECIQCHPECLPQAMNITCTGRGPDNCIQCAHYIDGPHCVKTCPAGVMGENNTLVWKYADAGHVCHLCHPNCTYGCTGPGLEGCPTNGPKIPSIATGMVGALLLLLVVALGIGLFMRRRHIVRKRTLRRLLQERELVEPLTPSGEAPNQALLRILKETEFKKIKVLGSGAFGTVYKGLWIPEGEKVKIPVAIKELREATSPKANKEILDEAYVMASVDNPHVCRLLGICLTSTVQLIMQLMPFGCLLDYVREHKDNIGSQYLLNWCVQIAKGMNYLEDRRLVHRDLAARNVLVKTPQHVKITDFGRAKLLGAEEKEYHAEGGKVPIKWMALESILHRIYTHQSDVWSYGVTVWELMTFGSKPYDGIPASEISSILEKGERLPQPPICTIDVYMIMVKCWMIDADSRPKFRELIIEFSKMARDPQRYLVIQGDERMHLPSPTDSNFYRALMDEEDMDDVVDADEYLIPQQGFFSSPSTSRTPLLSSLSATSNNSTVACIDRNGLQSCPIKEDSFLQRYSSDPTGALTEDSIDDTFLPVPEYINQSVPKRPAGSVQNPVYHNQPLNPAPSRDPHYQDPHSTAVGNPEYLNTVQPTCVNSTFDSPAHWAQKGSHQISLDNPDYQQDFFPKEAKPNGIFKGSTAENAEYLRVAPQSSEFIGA
# T4 sequence (P00533 25-1210 T790M/L858R): as above
# T3 sequence (P00533 25-1210 T790M/C797S/L858R): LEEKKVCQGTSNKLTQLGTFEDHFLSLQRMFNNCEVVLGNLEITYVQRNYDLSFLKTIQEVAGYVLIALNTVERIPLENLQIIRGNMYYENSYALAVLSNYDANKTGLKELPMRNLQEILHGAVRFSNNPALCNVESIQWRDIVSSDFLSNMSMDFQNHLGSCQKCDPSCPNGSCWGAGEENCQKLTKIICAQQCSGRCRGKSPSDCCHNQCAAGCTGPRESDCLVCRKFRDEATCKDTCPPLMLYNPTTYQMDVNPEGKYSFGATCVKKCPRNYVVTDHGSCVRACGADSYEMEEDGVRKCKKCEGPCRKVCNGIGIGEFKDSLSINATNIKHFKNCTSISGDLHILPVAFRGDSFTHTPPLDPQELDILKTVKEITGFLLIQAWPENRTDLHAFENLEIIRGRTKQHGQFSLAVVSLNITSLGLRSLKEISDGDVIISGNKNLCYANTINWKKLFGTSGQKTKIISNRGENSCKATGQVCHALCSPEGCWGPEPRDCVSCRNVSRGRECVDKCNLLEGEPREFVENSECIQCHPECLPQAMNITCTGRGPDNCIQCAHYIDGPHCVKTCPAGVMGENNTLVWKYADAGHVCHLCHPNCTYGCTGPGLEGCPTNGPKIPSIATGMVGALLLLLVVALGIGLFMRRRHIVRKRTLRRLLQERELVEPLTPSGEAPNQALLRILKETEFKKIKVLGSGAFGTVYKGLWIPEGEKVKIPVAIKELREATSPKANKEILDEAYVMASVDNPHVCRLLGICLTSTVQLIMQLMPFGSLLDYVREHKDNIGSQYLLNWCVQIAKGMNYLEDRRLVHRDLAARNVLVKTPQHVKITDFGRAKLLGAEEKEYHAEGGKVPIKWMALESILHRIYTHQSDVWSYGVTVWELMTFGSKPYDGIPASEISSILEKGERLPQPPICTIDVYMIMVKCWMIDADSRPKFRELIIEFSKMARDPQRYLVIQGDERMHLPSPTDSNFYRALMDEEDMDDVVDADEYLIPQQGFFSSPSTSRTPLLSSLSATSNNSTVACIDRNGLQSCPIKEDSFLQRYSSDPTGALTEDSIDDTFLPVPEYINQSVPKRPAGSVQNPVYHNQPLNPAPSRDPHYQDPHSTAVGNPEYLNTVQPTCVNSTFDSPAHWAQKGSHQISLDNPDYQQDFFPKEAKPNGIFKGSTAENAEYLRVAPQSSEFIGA
# T1 sequence (P00533 25-1210 T790M/C797S/L858R): as above
Compound,DC50 (EGFR L858R) [nM],DC50 (EGFR L858R-T790M-C797S) [nM],IC50 (pY1068 EGFR L858R) [nM],IC50 [1] [nM],IC50 (pY1068 EGFR L858R-T790M) [nM],DC50 (EGFR L858R-T790M; [8]) [nM],DC50 (EGFR L858R-T790M; [9]) [nM],GI50 [2] [nM],GI50 [3] [nM],GI50 [4] [nM],GI50 [5] [nM],GI50 [6] [nM],DC50 (EGFR WT) [nM],efficacy on BaF3 tumor volume [7]
"O=C1CC[C@H](Nc2ccc(N3CCC(O)(CC(=O)N4CCC5(CC4)CN(c4ccc(-c6cc(F)c7c(c6)C(=O)N(C(C(=O)Nc6nccs6)c6ncn8c6CCC8)C7)cc4)C5)CC3)c(F)c2)C(=O)N1 (stereo partly drawn) [Compound 9, 2-(6,7-dihydro-5H-pyrrolo[1,2-c]imidazol-1-yl)-2-[6-[4-[7-[2-[1-[4-[[(3S)-2,6-dioxo-3-piperidyl]amino]-2-fluoro-phenyl]-4-hydroxy-4-piperidyl]acetyl]-2,7-diazaspiro[3.5]nonan-2-yl]phenyl]-4-fluoro-1-oxo-isoindolin-2-yl]-N-thiazol-2-yl-acetamide]",–,–,–,–,30,24,< 50,33,10,16,23,82,–,–
"C=CC(=O)Nc1cc(Nc2nccc(-c3cn(C)c4ccccc34)n2)c(OC)cc1N(C)CCN(C)C [osimertinib, reference compound]",–,–,–,–,–,–,–,–,–,–,–,–,–,minimal efficacy
"O=C1CCN(c2ccc(N3CCC(O)(CC(=O)N4CC5(C4)CN(c4ccc(-c6cc(F)c7c(c6)C(=O)N(C(C(=O)Nc6nccs6)c6ncn8c6CCC8)C7)cc4)C5)CC3)c(Cl)c2)C(=O)N1 (stereo not drawn) [Compound 8, 2-[6-[4-[2-[2-[1-[2-chloro-4-(2,4-dioxohexahydropyrimidin-1-yl)phenyl]-4-hydroxy-4-piperidyl]acetyl]-2,6-diazaspiro[3.3]heptan-6-yl]phenyl]-4-fluoro-1-oxo-isoindolin-2-yl]-2-(6,7-dihydro-5H-pyrrolo[1,2-c]imidazol-1-yl)-N-thiazol-2-yl-acetamide]",–,–,–,–,22,23,< 50,45,213,13,2020,403,–,–

# More lines, in order of falling IC50 (pY1068 EGFR L858R-T790M), values ahead:
DC50 (EGFR L858R) [nM],DC50 (EGFR L858R-T790M-C797S) [nM],IC50 (pY1068 EGFR L858R) [nM],IC50 [1] [nM],IC50 (pY1068 EGFR L858R-T790M) [nM],DC50 (EGFR L858R-T790M; [8]) [nM],DC50 (EGFR L858R-T790M; [9]) [nM],GI50 [2] [nM],GI50 [3] [nM],GI50 [4] [nM],GI50 [5] [nM],GI50 [6] [nM],DC50 (EGFR WT) [nM],Compound,efficacy on BaF3 tumor volume [7]
–,–,–,–,17,15,< 50,23,7,10,17,45,–,"O=C1CCC(Nc2ccc(N3CCC(O)(CC(=O)N4CC5(C4)CN(c4ccc(-c6cc(F)c7c(c6)C(=O)N(C(C(=O)Nc6nccs6)c6ncn8c6CCC8)C7)cc4)C5)CC3)c(Cl)c2)C(=O)N1 (single isomer, unassigned; isomer 1) [Compound 7, 2-(6-(4-(6-(2-(1-(2-chloro-4-((2,6-dioxopiperidin-3-yl)amino)phenyl)-4-hydroxypiperidin-4-yl)acetyl)-2,6-diazaspiro[3.3]heptan-2-yl)phenyl)-4-fluoro-1-oxoisoindolin-2-yl)-2-(6,7-dihydro-5H-pyrrolo[1,2-c]imidazol-1-yl)-N-(thiazol-2-yl)acetamide, isomer 1]",–
17,33,16,22,15,15,< 50,–,–,–,–,–,–,"O=C1CCC(Nc2ccc(C3CCN(CC(=O)N4CC5(C4)CN(c4ccc(-c6cc(F)c7c(c6)C(=O)N(C(C(=O)Nc6nccs6)c6ncn8c6CCC8)C7)cc4)C5)CC3(F)F)cc2)C(=O)N1 (single isomer, unassigned) [Compound 4, 2-(6,7-dihydro-5H-pyrrolo[1,2-c]imidazol-1-yl)-2-(6-(4-(6-(2-(4-(4-((2,6-dioxopiperidin-3-yl)amino)phenyl)-3,3-difluoropiperidin-1-yl)acetyl)-2,6-diazaspiro[3.3]heptan-2-yl)phenyl)-4-fluoro-1-oxoisoindolin-2-yl)-N-(thiazol-2-yl)acetamide]",–
22,23,19,22,12,–,< 50,–,–,–,–,–,> 10000,"Cn1nc(N2CCC(=O)NC2=O)c2ccc(C3CCN(CC(=O)N4CC5(C4)CN(c4ccc(-c6cc(F)c7c(c6)C(=O)N(C(C(=O)Nc6ccccn6)c6ncn8c6CCC8)C7)cc4)C5)CC3(F)F)cc21 (stereo not drawn) [Compound 5, 2-(6,7-dihydro-5H-pyrrolo[1,2-c]imidazol-1-yl)-2-[6-[4-[2-[2-[4-[3-(2,4-dioxohexahydropyrimidin-1-yl)-1-methyl-indazol-6-yl]-3,3-difluoro-1-piperidyl]acetyl]-2,6-diazaspiro[3.3]heptan-6-yl]phenyl]-4-fluoro-1-oxo-isoindolin-2-yl]-N-(2-pyridyl)acetamide]",–
